The record followed here is patent US10323022B2, “Pyrrolidinyl urea, pyrrolidinyl thiourea and pyrrolidinyl guanidine compounds as TrkA kinase inhibitors” (Array BioPharma Inc., priority 2011, dated 2019).

For this assay, the target named is TrkA (Homo sapiens (Human), UniProt P04629). Briefly: TrkA Omnia Assay. In kind it is biochemical. Particulars: averaged IC50; 20 nM enzyme, 500 μM ATP, 10 μM peptide substrate. The method, boiled down: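 Continuous fluorescent kinase read-out (ex 360 nm, em 485 nm) over 70 min, with initial rates fitted to 4- or 5-parameter logistic curves for IC50. Final conditions: 500 μM ATP, 10 μM Omnia Tyr Peptide #4, 20 nM TrkA, MOPS pH 7.5 buffer with MgCl2 and Triton X-100; enzyme and compound preincubated 10 min at ambient temperature.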

Where only a bound is given, the exact number is not on record here.

TrkA, sequence (P04629 33-796): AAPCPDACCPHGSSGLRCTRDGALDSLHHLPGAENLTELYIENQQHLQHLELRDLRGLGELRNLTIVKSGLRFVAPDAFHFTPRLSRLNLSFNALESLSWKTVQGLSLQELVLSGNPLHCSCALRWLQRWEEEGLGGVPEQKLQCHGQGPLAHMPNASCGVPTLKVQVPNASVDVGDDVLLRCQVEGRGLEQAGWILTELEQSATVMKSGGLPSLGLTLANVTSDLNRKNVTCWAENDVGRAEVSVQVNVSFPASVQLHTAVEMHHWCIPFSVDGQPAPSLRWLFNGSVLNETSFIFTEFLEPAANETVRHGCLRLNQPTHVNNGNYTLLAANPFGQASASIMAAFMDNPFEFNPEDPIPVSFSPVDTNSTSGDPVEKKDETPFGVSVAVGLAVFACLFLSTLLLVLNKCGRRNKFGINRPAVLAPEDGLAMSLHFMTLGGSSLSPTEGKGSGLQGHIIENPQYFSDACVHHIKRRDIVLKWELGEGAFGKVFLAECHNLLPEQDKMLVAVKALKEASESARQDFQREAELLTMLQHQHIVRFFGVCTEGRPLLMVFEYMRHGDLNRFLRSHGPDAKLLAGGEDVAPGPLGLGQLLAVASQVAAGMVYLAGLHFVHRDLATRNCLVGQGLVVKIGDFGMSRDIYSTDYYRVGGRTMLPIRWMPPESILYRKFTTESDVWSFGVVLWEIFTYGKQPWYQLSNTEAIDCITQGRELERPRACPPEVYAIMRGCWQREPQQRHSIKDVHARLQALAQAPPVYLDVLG

Turning to `COCCN1C[C@@H](NC(=O)Nc2c(C)c(-c3cnn(Cc4ccc(OC)cc4)c3)nn2-c2ccccc2)[C@H](c2ccc(F)c(F)c2)C1` [Example 446, 1-((3S,4R)-4-(3,4-difluorophenyl)-1-(2-methoxyethyl)pyrrolidin-3-yl)-3-(1′-(4-methoxybenzyl)-4-methyl-1-phenyl-1H, 1′H-[3,4′-bipyrazol]-5-yl)urea], the IC50 is under 0.1 µM. The compound `COCCN1C[C@@H](NC(=O)Nc2c(C)c(OCCN3CCOCC3)nn2-c2ccccc2)[C@H](c2ccc(F)c(F)c2)C1` [Example 386, 1-((3S,4R)-4-(3,4-difluorophenyl)-1-(2-methoxyethyl)pyrrolidin-3-yl)-3-(4-methyl-3-(2-morpholinoethoxy)-1-phenyl-1H-pyrazol-5-yl)urea] showed an IC50 of under 0.1 µM. Consider `COCCN1C[C@@H](NC(=O)Nc2cc(-c3ccc(C(=O)OC)cc3)nn2C)[C@H](c2ccc(F)c(F)c2)C1` [Example 121, methyl 4-(5-(3-((3S,4R)-4-(3,4-difluorophenyl)-1-(2-methoxyethyl)pyrrolidin-3-yl)ureido)-1-methyl-1H-pyrazol-3-yl)benzoate], for which the IC50 was under 0.1 µM.

Compound `COCCN1C[C@@H](NC(=O)Nc2c3c(nn2-c2ccccc2)CCC3)[C@](O)(c2ccccc2)C1` [Example 180, 1-((3R,4S)-4-hydroxy-1-(2-methoxyethyl)-4-phenylpyrrolidin-3-yl)-3-(2-phenyl-2,4,5,6-tetrahydrocyclopenta[c]pyrazol-3-yl)urea] displayed an IC50 of 1 to 10 µM. For the compound `Cc1c(OCCF)nn(-c2ccccc2)c1NC(=O)N[C@H]1CN(CC(F)(F)F)C[C@@H]1c1ccccc1` [Example 266, 1-(3-(2-fluoroethoxy)-4-methyl-1-phenyl-1H-pyrazol-5-yl)-3-((3R,4S)-4-phenyl-1-(2,2,2-trifluoroethyl)pyrrolidin-3-yl)urea], the IC50 was under 0.1 µM. Turning to `Cc1c(-c2cnn(C)c2)nn(-c2ccccc2)c1NC(=O)N[C@@H]1CN(Cc2csnn2)C[C@H]1c1ccc(F)c(F)c1` [Example 251, 1-((3S,4R)-1-((1,2,3-thiadiazol-4-yl)methyl)-4-(3,4-difluorophenyl)pyrrolidin-3-yl)-3-(1′,4-dimethyl-1-phenyl-1H, 1′H-3,4′-bipyrazol-5-yl)urea], the IC50 is under 0.1 µM. Regarding `CCn1cc(-c2nn(-c3ccccc3)c(NC(=O)N[C@@H]3CN(CCOC)C[C@H]3c3ccc(F)c(F)c3)c2C)cn1` [Example 523, 1-((3S,4R)-4-(3,4-difluorophenyl)-1-(2-methoxyethyl)pyrrolidin-3-yl)-3-(1′-ethyl-4-methyl-1-phenyl-1H, 1′H-[3,4′-bipyrazol]-5-yl)urea], the IC50 is under 0.1 µM. Take `COCCN1C[C@@H](NC(=O)Nc2c(C)c(OCCN3C(=O)c4ccccc4C3=O)nn2-c2ccccc2)[C@H](c2ccc(F)c(F)c2)C1` [Example 387, 1-((3S,4R)-4-(3,4-difluorophenyl)-1-(2-methoxyethyl)pyrrolidin-3-yl)-3-(3-(2-(1,3-dioxoisoindolin-2-yl)ethoxy)-4-methyl-1-phenyl-1H-pyrazol-5-yl)urea]: the IC50 was under 0.1 µM.

With `COCCN1C[C@@H](NC(=O)Nc2c(C)c(OC[C@@H](C)O)nn2-c2ccccc2)[C@H](c2cc(F)cc(F)c2)C1` [Example 366, 1-((3S,4R)-4-(3,5-difluorophenyl)-1-(2-methoxyethyl)pyrrolidin-3-yl)-3-(3-((R)-2-hydroxypropoxy)-4-methyl-1-phenyl-1H-pyrazol-5-yl)urea], the IC50 is under 0.1 µM.

The compound `COCCN1C[C@@H](NC(=O)Nc2c(C)c(-c3cnn(C4CC4)c3)nn2-c2ccccc2)[C@H](c2ccc(F)c(F)c2)C1` [Example 509, 1-(1′-cyclopropyl-4-methyl-1-phenyl-1H,1′H-[3,4′-bipyrazol]-5-yl)-3-((3S,4R)-4-(3,4-difluorophenyl)-1-(2-methoxyethyl)pyrrolidin-3-yl)urea] yielded an IC50 of under 0.1 µM. `COCCN1C[C@@H](NC(=O)Nc2c(CO)c(COC)nn2-c2ccccc2)[C@H](c2ccc(F)c(F)c2)C1` [Example 160, 1-((3S,4R)-4-(3,4-difluorophenyl)-1-(2-methoxyethyl)pyrrolidin-3-yl)-3-(4-(hydroxymethyl)-3-(methoxymethyl)-1-phenyl-1H-pyrazol-5-yl)urea] gave an IC50 of 0.1 to 1 µM.

`COCCN1C[C@@H](NC(=O)Nc2c(C)c([C@H]3C[C@H](O)C3)nn2-c2ccccc2)[C@H](c2ccc(F)cc2)C1` [Example 455, 1-((3S,4R)-4-(4-fluorophenyl)-1-(2-methoxyethyl)pyrrolidin-3-yl)-3-(3-(trans-3-hydroxycyclobutyl)-4-methyl-1-phenyl-1H-pyrazol-5-yl)urea] came in with an IC50 of under 0.1 µM.

In the case of `O=C(Nc1c2c(nn1-c1ccccc1)CCC2)N[C@@H]1CN(CC(F)(F)F)C[C@H]1c1ccccc1` (relative stereo) [Example 194, 1-((trans)-4-phenyl-1-(2,2,2-trifluoroethyl)pyrrolidin-3-yl)-3-(2-phenyl-2,4,5,6-tetrahydrocyclopenta[c]pyrazol-3-yl)urea], the IC50 was under 0.1 µM. As to `COCCN1C[C@@H](NC(=O)Nc2c(Br)c(C3CCOCC3)nn2-c2ccccc2)[C@H](c2ccc(F)c(F)c2)C1` [Example 574, 1-(4-bromo-1-phenyl-3-(tetrahydro-2H-pyran-4-yl)-1H-pyrazol-5-yl)-3-((3S,4R)-4-(3,4-difluorophenyl)-1-(2-methoxyethyl)pyrrolidin-3-yl)urea], the IC50 is under 0.1 µM. `COCCN1C[C@@H](NC(=O)Nc2c(C)c(-c3cnn(C)c3)nn2-c2ccc(F)cc2)[C@H](c2ccc(F)c(F)c2)C1` [Example 312, 1-((3S,4R)-4-(3,4-difluorophenyl)-1-(2-methoxyethyl)pyrrolidin-3-yl)-3-(1-(4-fluorophenyl)-1′,4-dimethyl-1H,1′H-[3,4′-bipyrazol]-5-yl)urea] yielded an IC50 of under 0.1 µM. The compound `COCCN1C[C@@H](NC(=O)Nc2c(C)c(-c3cc(C)nn3C)nn2-c2ccccc2)[C@H](c2ccc(F)c(F)c2)C1` [Example 308, 1-((3S,4R)-4-(3,4-difluorophenyl)-1-(2-methoxyethyl)pyrrolidin-3-yl)-3-(2′,4,5′-trimethyl-1-phenyl-1H,2′H-[3,3′-bipyrazol]-5-yl)urea] came in with an IC50 of under 0.1 µM. As to `COCCN1C[C@@H](NC(=O)Nc2cc(-c3ccc(F)cc3)nn2C)[C@H](c2ccccc2)C1` [Example 107, 1-(3-(4-fluorophenyl)-1-methyl-1H-pyrazol-5-yl)-3-((3S,4R)-1-(2-methoxy-ethyl)-4-phenylpyrrolidin-3-yl)urea], the IC50 was under 0.1 µM. In the case of `Cc1nn(-c2ccccc2)c(NC(=O)N[C@@H]2CN(CC(F)(F)F)C[C@H]2c2ccccc2)c1C` (relative stereo) [Example 195, 1-(3,4-dimethyl-1-phenyl-1H-pyrazol-5-yl)-3-((trans)-4-phenyl-1-(2,2,2-trifluoroethyl)pyrrolidin-3-yl)urea], the IC50 is under 0.1 µM. Compound `CCc1c(-c2cnn(C)c2)nn(-c2ccccc2)c1NC(=O)N[C@@H]1CN(CCOC)C[C@H]1c1ccc(F)c(F)c1` [Example 311, 1-((3S,4R)-4-(3,4-difluorophenyl)-1-(2-methoxyethyl)pyrrolidin-3-yl)-3-(4-ethyl-1′-methyl-1-phenyl-1H,1′H-[3,4′-bipyrazol]-5-yl)urea] showed an IC50 of under 0.1 µM. For `COCCN1C[C@@H](NC(=O)Nc2c(C)c(-c3cc(C)n(C)n3)nn2-c2ccccc2)[C@H](c2cc(F)cc(F)c2)C1` [Example 306, 1-((3S,4R)-4-(3,5-difluorophenyl)-1-(2-methoxyethyl)pyrrolidin-3-yl)-3-(1′,4,5′-trimethyl-1-phenyl-1H,1′H-[3,3′-bipyrazol]-5-yl)urea] the value was under 0.1 µM; for `CCOc1nn(-c2ccccc2)c(NC(=O)N[C@H]2CN(c3ccnn3C)C[C@@H]2c2ccccc2)c1C` [Example 229, 1-(3-ethoxy-4-methyl-1-phenyl-1H-pyrazol-5-yl)-3-((3R,4S)-1-(1-methyl-1H-pyrazol-5-yl)-4-phenylpyrrolidin-3-yl)urea], under 0.1 µM. For `COCCN1C[C@@H](NC(=O)Nc2c3c(nn2-c2ccccc2)CN(C(=O)OC(C)(C)C)C3)[C@H](c2ccccc2)C1` [Example 79, tert-butyl 3-(3-((3S,4R)-1-(2-methoxyethyl)-4-phenylpyrrolidin-3-yl)ureido)-2-phenyl-4,6-dihydropyrrolo[3,4-c] pyrazole-5(2H)-carboxylate] the value was 1 to 10 µM; for `COCCN1C[C@@H](NC(=O)Nc2c(C)c(OCC(F)(F)F)nn2-c2ccccc2)[C@H](c2ccc(F)c(F)c2)C1` [Example 475, 1-((3S,4R)-4-(3,4-difluorophenyl)-1-(2-methoxyethyl)pyrrolidin-3-yl)-3-(4-methyl-1-phenyl-3-(2,2,2-trifluoroethoxy)-1H-pyrazol-5-yl)urea], under 0.1 µM.

As for `COCCN1C[C@@H](NC(=O)Nc2c3c(nn2-c2ccccc2)CCC3)[C@H](c2cncc(F)c2)C1` [Example 337, 1-((3S,4R)-4-(5-fluoropyridin-3-yl)-1-(2-methoxyethyl)pyrrolidin-3-yl)-3-(2-phenyl-2,4,5,6-tetrahydrocyclopenta[c]pyrazol-3-yl)urea], the IC50 was under 0.1 µM. On to `COCCN1C[C@@H](NC(=O)Nc2c(Br)c(OCC(C)(C)O)nn2-c2ccccc2)[C@H](c2ccc(F)c(F)c2)C1` [Example 358, 1-(4-bromo-3-(2-hydroxy-2-methylpropoxy)-1-phenyl-1H-pyrazol-5-yl)-3-((3S,4R)-4-(3,4-difluorophenyl)-1-(2-methoxyethyl)pyrrolidin-3-yl)urea], for which the IC50 was under 0.1 µM. In turn, `COCCN1C[C@@H](NC(=O)Nc2c(C)c(C)nn2-c2ccccc2)[C@H](c2ccccc2)C1` (relative stereo) [Example 18, 1-(3,4-dimethyl-1-phenyl-1H-pyrazol-5-yl)-3-(trans-1-(2-methoxyethyl)-4-phenylpyrrolidin-3-yl)urea] came in with an IC50 of under 0.1 µM.
